# Values quoted from earlier work in patent US20070027073A1, “Long-acting derivatives of pyy agonists” (priority 2003, published 2007).
# Details: in vivo
compound,measurement,value
CCCCCCCCCCC[C@@H](C[C@@H]1OC(=O)[C@H]1CCCCCC)OC(=O)[C@H](CC(C)C)NC=O [Orlistat],reduction of fat adsorption through the gut,about one third
